Experimental data reported in ChEMBL document CHEMBL4265887 (Bioorg Med Chem Lett, 2018).
Converted amounts (≈) assume the structure as drawn. The source made the active and inactive calls. No cut-off for these calls is given here.

Columns and labels:
HCT-116 [1] = experiment: Cytotoxicity against human HCT116 cells assessed as reduction in cell viability after 48 hrs by MTT assay; format: functional, cell-based; conditions: HCT-116, 48 h
Aurora kinase A = target: T1, Aurora kinase A (Homo sapiens, UniProt O14965); experiment: Inhibition of recombinant Aurora A (unknown origin) using TAMRA-PKAtide as substrate after 30 mins by fluorescence polarization assay
T1 sequence (O14965 whole entry): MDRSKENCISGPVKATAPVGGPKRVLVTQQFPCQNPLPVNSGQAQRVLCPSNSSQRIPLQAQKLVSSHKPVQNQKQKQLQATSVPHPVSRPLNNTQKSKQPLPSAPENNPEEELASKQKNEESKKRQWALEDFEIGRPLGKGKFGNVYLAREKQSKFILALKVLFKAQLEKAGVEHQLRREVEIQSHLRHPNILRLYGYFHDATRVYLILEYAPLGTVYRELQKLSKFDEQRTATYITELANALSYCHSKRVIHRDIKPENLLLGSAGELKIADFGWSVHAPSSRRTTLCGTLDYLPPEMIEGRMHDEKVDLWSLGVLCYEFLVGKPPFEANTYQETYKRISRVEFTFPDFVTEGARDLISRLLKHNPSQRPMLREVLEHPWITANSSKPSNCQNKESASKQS

Aurora kinase B = Aurora kinase B (Homo sapiens, UniProt Q96GD4); experiment: Inhibition of recombinant Aurora B (unknown origin) using TAMRA-PKAtide as substrate after 1 hr by fluorescence polarization assay
HCT-116 [2] = experiment: Induction of apoptosis in human HCT116 cells at 100 nM after 72 hrs by Annexin V-FITC staining-based flow cytometric analysis; format: functional, cell-based
HCT-116 [3] = experiment: Inhibition of cytokinesis in human HCT116 cells at 100 nM after 24 hrs by propidium iodide/RNase staining-based flow cytometric analysis; format: functional, cell-based
HCT-116 [4] = experiment: Induction of apoptosis in human HCT116 cells at 1 uM after 72 hrs by Annexin V-FITC/propidium iodide staining-based flow cytometric analysis; format: functional, cell-based
[5] = Solubility of the compound in phosphate buffer of pH 7.4 after 24 hrs by RP-HPLC analysis; format: physicochemical; conditions: phosphate buffer, pH 7.4
[6] = Solubility of the compound in phosphate buffer of pH 2 after 24 hrs by RP-HPLC analysis; format: physicochemical
HCT-116 [7] = experiment: Synergistic cytotoxicity against human HCT116 cells assessed as reduction in cell viability by measuring combination index at 1:1 compound to GSK2126458 ratio after 48 hrs by MTT assay; format: functional
HCT-116 [8] = experiment: Synergistic cytotoxicity against human HCT116 cells assessed as reduction in cell viability by measuring combination index at 1:1 compound to trichostatin A ratio after 48 hrs by MTT assay; format: functional
HCT-116 [9] = experiment: Synergistic cytotoxicity against human HCT116 cells assessed as reduction in cell viability by measuring combination index at 1:1 compound to dasatinib ratio after 48 hrs by MTT assay; format: functional
HCT-116 [10] = experiment: Synergistic cytotoxicity against human HCT116 cells assessed as reduction in cell viability by measuring combination index at 1:1 compound to crizotinib ratio after 48 hrs by MTT assay; format: functional
HCT-116 [11] = experiment: Synergistic cytotoxicity against human HCT116 cells assessed as reduction in cell viability by measuring combination index at 1:1 compound to lonafarnib ratio after 48 hrs by MTT assay; format: functional
HT-29 [12] = experiment: Synergistic cytotoxicity against human HT-29 cells assessed as reduction in cell viability by measuring combination index at 1:1 compound to GSK2126458 ratio after 48 hrs by MTT assay; format: functional
HT-29 [13] = experiment: Synergistic cytotoxicity against human HT-29 cells assessed as reduction in cell viability by measuring combination index at 1:1 compound to erlotinib ratio after 48 hrs by MTT assay; format: functional
HT-29 [14] = experiment: Synergistic cytotoxicity against human HT-29 cells assessed as reduction in cell viability by measuring combination index at 1:1 compound to trichostatin A ratio after 48 hrs by MTT assay; format: functional
HT-29 [15] = experiment: Synergistic cytotoxicity against human HT-29 cells assessed as reduction in cell viability by measuring combination index at 1:1 compound to crizotinib ratio after 48 hrs by MTT assay; format: functional
HT-29 [16] = experiment: Synergistic cytotoxicity against human HT-29 cells assessed as reduction in cell viability by measuring combination index at 1:1 compound to lonafarnib ratio after 48 hrs by MTT assay; format: functional
[17] = target: Vascular endothelial growth factor receptor 2 (Homo sapiens) (UniProt P35968); experiment: Inhibition of VEGFR2 (unknown origin) at 10 uM
[18] = target: Proto-oncogene tyrosine-protein kinase Src (Homo sapiens) (UniProt P12931); experiment: Inhibition of c-Src (unknown origin) at 10 uM
[19] = target: Tyrosine-protein kinase ABL1 (Homo sapiens) (UniProt P00519); experiment: Inhibition of ABL (unknown origin) at 10 uM
[20] = target: Tyrosine-protein kinase JAK3 (Homo sapiens) (UniProt P52333); experiment: Inhibition of JAK3 (unknown origin) at 10 uM
[21] = target: Proto-oncogene tyrosine-protein kinase receptor Ret (Homo sapiens) (UniProt P07949); experiment: Inhibition of RET (unknown origin) at 10 uM
[22] = target: Platelet-derived growth factor receptor beta (Homo sapiens) (UniProt P09619); experiment: Inhibition of PDGFRbeta (unknown origin) at 10 uM
[23] = target: Epithelial discoidin domain-containing receptor 1 (Homo sapiens) (UniProt Q08345); experiment: Inhibition of DDR1 (unknown origin) at 10 uM
Epithelial discoidin domain-containing receptor 1 (Homo sapiens), sequence (Q08345 whole entry, the tested form may be a part): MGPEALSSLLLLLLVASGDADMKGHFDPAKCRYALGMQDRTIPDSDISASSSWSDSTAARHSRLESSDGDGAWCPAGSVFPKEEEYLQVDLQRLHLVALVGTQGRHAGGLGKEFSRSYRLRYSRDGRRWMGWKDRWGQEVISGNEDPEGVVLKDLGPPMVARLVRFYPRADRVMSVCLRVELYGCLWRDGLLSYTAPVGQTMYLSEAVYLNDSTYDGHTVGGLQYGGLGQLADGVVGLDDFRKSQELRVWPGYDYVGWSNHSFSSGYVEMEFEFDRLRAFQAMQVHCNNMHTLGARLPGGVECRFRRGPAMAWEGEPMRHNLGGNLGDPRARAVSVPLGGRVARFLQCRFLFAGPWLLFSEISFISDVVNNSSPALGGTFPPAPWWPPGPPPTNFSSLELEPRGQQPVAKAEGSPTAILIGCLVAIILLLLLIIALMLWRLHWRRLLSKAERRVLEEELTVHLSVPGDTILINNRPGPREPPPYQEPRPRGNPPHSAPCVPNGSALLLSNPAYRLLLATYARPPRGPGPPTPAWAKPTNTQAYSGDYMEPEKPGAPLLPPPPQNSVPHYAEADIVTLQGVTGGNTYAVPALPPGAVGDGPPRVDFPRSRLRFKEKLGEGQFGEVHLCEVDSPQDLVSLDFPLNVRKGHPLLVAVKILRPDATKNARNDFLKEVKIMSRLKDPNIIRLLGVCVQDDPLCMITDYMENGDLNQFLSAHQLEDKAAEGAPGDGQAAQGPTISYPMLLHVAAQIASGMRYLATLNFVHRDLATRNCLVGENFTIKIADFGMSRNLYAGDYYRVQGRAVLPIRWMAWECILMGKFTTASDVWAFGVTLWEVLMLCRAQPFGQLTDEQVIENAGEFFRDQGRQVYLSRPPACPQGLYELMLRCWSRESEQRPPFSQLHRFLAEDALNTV

[24] = target: Mast/stem cell growth factor receptor Kit (Homo sapiens) (UniProt P10721); experiment: Inhibition of c-KIT (unknown origin) at 10 uM
[25] = target: Serine/threonine-protein kinase Chk1 (Homo sapiens) (UniProt O14757); experiment: Inhibition of CHK1 (unknown origin) at 10 uM
[26] = target: Receptor-type tyrosine-protein kinase FLT3 (Homo sapiens) (UniProt P36888); experiment: Inhibition of FLT3 (unknown origin) at 10 uM
Receptor-type tyrosine-protein kinase FLT3 (Homo sapiens), sequence (P36888 whole entry): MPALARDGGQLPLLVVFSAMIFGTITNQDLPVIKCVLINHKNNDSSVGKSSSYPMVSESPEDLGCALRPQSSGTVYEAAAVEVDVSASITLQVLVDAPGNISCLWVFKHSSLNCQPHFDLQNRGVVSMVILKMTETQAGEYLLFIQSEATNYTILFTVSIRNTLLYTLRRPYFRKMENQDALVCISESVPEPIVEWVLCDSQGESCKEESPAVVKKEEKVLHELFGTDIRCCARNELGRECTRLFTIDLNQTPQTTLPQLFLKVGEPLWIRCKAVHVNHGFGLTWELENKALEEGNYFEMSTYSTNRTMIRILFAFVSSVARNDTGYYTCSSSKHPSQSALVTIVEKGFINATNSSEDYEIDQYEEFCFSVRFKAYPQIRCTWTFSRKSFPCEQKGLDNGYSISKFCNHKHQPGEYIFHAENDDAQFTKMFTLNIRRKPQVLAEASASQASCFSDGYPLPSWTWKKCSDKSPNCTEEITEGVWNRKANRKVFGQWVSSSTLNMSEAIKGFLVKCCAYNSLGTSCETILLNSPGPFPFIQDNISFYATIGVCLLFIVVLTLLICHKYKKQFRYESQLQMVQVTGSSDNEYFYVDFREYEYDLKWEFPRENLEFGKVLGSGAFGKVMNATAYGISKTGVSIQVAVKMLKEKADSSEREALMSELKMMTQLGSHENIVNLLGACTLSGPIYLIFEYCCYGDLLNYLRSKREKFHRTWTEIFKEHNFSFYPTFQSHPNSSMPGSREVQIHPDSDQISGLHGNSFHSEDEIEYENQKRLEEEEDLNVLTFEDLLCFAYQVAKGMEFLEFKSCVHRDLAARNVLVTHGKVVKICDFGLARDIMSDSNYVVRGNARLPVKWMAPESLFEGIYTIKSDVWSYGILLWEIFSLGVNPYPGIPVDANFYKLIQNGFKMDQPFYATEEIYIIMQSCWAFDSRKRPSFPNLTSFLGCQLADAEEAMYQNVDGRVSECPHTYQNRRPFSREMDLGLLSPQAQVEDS

[27] = target: Cyclin-dependent kinase 4/cyclin D1 (Homo sapiens) (UniProt P11802+P24385); experiment: Inhibition of CDK4/Cyclin D1 (unknown origin) at 10 uM; format: protein-complex assay
[28] = target: Insulin receptor (Homo sapiens) (UniProt P06213); experiment: Inhibition of INSR (unknown origin) at 10 uM
Insulin receptor (Homo sapiens), sequence (P06213 28-758 limits assumed): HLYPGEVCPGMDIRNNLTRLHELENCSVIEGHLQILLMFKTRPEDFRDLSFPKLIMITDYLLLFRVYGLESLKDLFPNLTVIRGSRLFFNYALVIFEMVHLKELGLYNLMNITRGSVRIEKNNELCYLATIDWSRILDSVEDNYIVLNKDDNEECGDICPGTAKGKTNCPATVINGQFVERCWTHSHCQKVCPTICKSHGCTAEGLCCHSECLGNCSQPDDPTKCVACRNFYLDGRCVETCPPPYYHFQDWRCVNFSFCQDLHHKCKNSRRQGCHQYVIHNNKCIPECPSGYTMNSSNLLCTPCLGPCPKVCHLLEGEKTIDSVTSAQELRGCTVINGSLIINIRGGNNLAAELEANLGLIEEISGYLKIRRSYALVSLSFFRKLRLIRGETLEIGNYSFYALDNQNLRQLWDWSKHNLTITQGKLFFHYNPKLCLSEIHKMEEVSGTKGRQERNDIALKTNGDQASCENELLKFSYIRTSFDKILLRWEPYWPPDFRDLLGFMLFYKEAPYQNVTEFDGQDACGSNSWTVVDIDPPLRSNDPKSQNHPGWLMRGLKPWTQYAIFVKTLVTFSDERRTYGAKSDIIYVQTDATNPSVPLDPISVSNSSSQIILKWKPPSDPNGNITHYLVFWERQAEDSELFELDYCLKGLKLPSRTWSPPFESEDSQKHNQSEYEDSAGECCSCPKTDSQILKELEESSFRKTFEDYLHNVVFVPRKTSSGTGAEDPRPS
Insulin receptor (Homo sapiens), sequence (P06213 763-1382 limits assumed): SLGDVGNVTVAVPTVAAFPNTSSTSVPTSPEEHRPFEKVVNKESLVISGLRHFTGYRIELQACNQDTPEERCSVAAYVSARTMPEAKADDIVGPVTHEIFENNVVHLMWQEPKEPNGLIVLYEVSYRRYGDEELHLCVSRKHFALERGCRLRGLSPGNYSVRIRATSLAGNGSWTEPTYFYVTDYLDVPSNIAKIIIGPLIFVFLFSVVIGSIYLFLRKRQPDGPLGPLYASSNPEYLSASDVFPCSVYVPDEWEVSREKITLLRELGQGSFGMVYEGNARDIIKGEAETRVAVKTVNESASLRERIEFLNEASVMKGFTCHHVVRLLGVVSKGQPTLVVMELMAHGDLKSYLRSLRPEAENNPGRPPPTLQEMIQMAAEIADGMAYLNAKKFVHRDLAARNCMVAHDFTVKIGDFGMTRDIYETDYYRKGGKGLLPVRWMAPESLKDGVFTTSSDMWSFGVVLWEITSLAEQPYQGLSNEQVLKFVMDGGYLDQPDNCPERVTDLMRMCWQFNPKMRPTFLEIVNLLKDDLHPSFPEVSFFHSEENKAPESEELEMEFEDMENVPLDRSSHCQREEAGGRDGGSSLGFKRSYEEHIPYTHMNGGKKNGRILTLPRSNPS

[29] = target: Tyrosine-protein kinase CSK (Homo sapiens) (UniProt P41240); experiment: Inhibition of CSK (unknown origin) at 10 uM
[30] = target: Tyrosine-protein kinase SYK (Homo sapiens) (UniProt P43405); experiment: Inhibition of SYK (unknown origin) at 10 uM
[31] = target: Interleukin-1 receptor-associated kinase 4 (Homo sapiens) (UniProt Q9NWZ3); experiment: Inhibition of IRAK4 (unknown origin) at 10 uM
Interleukin-1 receptor-associated kinase 4 (Homo sapiens), sequence (Q9NWZ3 whole entry): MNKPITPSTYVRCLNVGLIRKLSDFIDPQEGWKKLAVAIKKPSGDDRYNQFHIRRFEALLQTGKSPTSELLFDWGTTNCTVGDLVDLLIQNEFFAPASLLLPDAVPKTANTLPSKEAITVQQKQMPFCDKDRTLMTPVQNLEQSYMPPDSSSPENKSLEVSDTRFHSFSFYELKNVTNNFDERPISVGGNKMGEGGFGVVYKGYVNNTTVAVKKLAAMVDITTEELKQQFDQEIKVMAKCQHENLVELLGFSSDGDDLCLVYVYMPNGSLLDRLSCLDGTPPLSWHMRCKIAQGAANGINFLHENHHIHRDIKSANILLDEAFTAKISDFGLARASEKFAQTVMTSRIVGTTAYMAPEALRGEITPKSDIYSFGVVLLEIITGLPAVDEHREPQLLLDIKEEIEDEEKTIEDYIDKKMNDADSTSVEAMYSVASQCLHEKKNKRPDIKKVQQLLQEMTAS

[32] = target: RAC-alpha serine/threonine-protein kinase (Homo sapiens) (UniProt P31749); experiment: Inhibition of AKT1 (unknown origin) at 10 uM
[33] = target: Death-associated protein kinase 3 (Homo sapiens) (UniProt O43293); experiment: Inhibition of ZIPK (unknown origin) at 10 uM
[34] = target: Rho-associated protein kinase 2 (Homo sapiens) (UniProt O75116); experiment: Inhibition of ROCK2 (unknown origin) at 10 uM
Rho-associated protein kinase 2 (Homo sapiens), sequence (O75116 whole entry, looked up): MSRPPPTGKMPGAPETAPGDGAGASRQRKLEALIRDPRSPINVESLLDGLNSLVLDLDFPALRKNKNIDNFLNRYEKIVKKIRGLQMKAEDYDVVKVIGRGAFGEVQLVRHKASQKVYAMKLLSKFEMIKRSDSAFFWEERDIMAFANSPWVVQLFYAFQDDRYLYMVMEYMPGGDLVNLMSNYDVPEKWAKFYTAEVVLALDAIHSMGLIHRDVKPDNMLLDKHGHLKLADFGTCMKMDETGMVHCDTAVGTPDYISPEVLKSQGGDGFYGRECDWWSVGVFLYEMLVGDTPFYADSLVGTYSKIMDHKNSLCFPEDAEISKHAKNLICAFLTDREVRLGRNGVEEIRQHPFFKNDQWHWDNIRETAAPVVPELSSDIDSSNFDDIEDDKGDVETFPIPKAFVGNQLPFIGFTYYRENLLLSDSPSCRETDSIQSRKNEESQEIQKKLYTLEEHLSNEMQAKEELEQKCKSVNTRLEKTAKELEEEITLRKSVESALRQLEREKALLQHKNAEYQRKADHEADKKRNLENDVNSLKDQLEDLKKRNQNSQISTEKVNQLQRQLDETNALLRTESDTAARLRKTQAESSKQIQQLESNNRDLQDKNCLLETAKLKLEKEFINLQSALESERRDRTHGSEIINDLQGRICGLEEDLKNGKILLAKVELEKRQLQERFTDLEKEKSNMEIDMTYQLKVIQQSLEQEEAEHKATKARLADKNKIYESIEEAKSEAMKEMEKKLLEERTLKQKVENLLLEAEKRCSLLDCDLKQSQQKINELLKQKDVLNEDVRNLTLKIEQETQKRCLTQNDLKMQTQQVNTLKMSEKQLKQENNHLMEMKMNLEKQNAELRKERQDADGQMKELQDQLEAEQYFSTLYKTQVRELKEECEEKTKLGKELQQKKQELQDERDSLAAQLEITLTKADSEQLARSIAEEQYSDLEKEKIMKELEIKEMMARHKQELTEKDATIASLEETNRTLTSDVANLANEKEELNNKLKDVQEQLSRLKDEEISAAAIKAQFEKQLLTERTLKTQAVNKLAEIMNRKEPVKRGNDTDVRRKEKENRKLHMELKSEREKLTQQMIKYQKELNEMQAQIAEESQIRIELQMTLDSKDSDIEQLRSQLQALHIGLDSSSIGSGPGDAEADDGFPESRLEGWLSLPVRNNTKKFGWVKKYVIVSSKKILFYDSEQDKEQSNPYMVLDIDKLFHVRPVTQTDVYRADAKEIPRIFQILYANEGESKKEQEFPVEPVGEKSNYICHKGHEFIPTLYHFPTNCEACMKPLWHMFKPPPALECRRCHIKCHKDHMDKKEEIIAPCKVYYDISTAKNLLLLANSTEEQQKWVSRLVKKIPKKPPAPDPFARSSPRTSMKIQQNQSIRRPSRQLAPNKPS

CNC(=O)Nc1sc2c(C(C)C)cc(NS(=O)(=O)c3cccs3)cc2c1C(N)=O
IC50 (HCT-116 [1]): 290 nM
IC50 (Aurora kinase A): 32 nM
IC50 (Aurora kinase B): 29 nM
Activity (HCT-116 [2]): Active
Cytokinesis inhibition (active/inactive call) (HCT-116 [3]): Active
Activity (HCT-116 [4]): Active
solubility at 24 h [5]: 1.9 µM (≈ 0.86 µg/mL)
solubility at 24 h [6]: 1.8 µM (≈ 0.815 µg/mL)
CI (HCT-116 [7]): 1.042
CI (HCT-116 [8]): 0.195
CI (HCT-116 [9]): 1
CI (HCT-116 [10]): 0.136
CI (HCT-116 [11]): 0.755
CI (HT-29 [12]): 1.044
CI (HT-29 [13]): 0.075
CI (HT-29 [14]): 0.185
CI (HT-29 [15]): 0.102
CI (HT-29 [16]): 0.198
inhibition [17]: 109%
inhibition [18]: 105%
inhibition [19]: 100%
inhibition [20]: 99.6%
inhibition [21]: 98.4%
inhibition [22]: 88%
inhibition [23]: 84.4%
inhibition [24]: 71.6%
inhibition [25]: 62.8%
inhibition [26]: 56.8%
inhibition [27]: 44.1%
inhibition [28]: 28.5%
inhibition [29]: 17.3%
inhibition [30]: 16.6%
inhibition [31]: 16%
inhibition [32]: 13.6%
inhibition [33]: 12.9%
inhibition [34]: 11.8%
